Measurements reported in ChEMBL document CHEMBL3351475, “Synthesis and anti-tumor activity of glycosyl oxadiazoles derivatives” (Bioorg Med Chem Lett, 2014).

How the values were obtained:
MDA-MB-231 [1] = assay: Growth inhibition of human MDA-MB-231 cells at 100 uM after 24 hrs by MTT assay; assay type: functional; conditions: MDA-MB-231, 24 h
MDA-MB-231 [2] = assay: Growth inhibition of human MDA-MB-231 cells after 24 hrs by MTT assay; assay type: functional, cell-based; conditions: MDA-MB-231, 24 h

Row | IC50 (MDA-MB-231 [2]) | Structure (SMILES) | inhibition at 100 µM (MDA-MB-231 [1])
1 | – | O=C(N/N=C/c1ccccc1)c1ccc(O[C@@H]2O[C@H](CO)[C@@H](O)[C@H](O)[C@H]2O)cc1 | 3.56%
2 | – | CC(C)/C=N/NC(=O)c1ccc(O[C@@H]2O[C@H](CO)[C@@H](O)[C@H](O)[C@H]2O)cc1 | 1.7%
3 | – | O=C(N/N=C/C1CCCCC1)c1ccc(O[C@@H]2O[C@H](CO)[C@@H](O)[C@H](O)[C@H]2O)cc1 | 0.88%
4 | – | CCCCC/C=N/NC(=O)c1ccc(O[C@@H]2O[C@H](CO)[C@@H](O)[C@H](O)[C@H]2O)cc1 | 11%
5 | – | O=C(N/N=C/c1cccc(Cl)c1)c1ccc(O[C@@H]2O[C@H](CO)[C@@H](O)[C@H](O)[C@H]2O)cc1 | 5.02%
6 | – | O=C(N/N=C/c1cccc([N+](=O)[O-])c1)c1ccc(O[C@@H]2O[C@H](CO)[C@@H](O)[C@H](O)[C@H]2O)cc1 | 6.23%
7 | – | O=C(N/N=C/c1ccc([N+](=O)[O-])cc1)c1ccc(O[C@@H]2O[C@H](CO)[C@@H](O)[C@H](O)[C@H]2O)cc1 | 7.12%
8 | – | N#Cc1cccc(/C=N/NC(=O)c2ccc(O[C@@H]3O[C@H](CO)[C@@H](O)[C@H](O)[C@H]3O)cc2)c1 | 6.17%
9 | 5970 nM | CC(=O)OC[C@H]1O[C@@H](Oc2ccc(-c3nnc(-c4ccccc4)o3)cc2)[C@H](OC(C)=O)[C@@H](OC(C)=O)[C@@H]1OC(C)=O | 29.5%
10 | 9230 nM | COc1ccc(-c2nnc(-c3ccc(O[C@@H]4O[C@H](COC(C)=O)[C@@H](OC(C)=O)[C@H](OC(C)=O)[C@H]4OC(C)=O)cc3)o2)cc1 | 26%
11 | 890 nM | CC(=O)OC[C@H]1O[C@@H](Oc2ccc(-c3nnc(-c4ccc(Cl)cc4)o3)cc2)[C@H](OC(C)=O)[C@@H](OC(C)=O)[C@@H]1OC(C)=O | 42.1%
12 | 260 nM | CC(=O)OC[C@H]1O[C@@H](Oc2ccc(-c3nnc(-c4ccc(F)cc4)o3)cc2)[C@H](OC(C)=O)[C@@H](OC(C)=O)[C@@H]1OC(C)=O | 54.1%
13 | – | CC(=O)OC[C@H]1O[C@@H](Oc2ccc(-c3nnc(-c4ccc(C)cc4)o3)cc2)[C@H](OC(C)=O)[C@@H](OC(C)=O)[C@@H]1OC(C)=O | 13.1%
14 | – | CC(=O)OC[C@H]1O[C@@H](Oc2ccc(-c3nnc(C(C)C)o3)cc2)[C@H](OC(C)=O)[C@@H](OC(C)=O)[C@@H]1OC(C)=O | 11.9%
15 | – | CC(=O)OC[C@H]1O[C@@H](Oc2ccc(-c3nnc(C4CCCCC4)o3)cc2)[C@H](OC(C)=O)[C@@H](OC(C)=O)[C@@H]1OC(C)=O | 11.6%
16 | 8340 nM | CCCCCc1nnc(-c2ccc(O[C@@H]3O[C@H](COC(C)=O)[C@@H](OC(C)=O)[C@H](OC(C)=O)[C@H]3OC(C)=O)cc2)o1 | 21.5%
17 | 1350 nM | CC(=O)OC[C@H]1O[C@@H](Oc2ccc(-c3nnc(-c4cccc(Cl)c4)o3)cc2)[C@H](OC(C)=O)[C@@H](OC(C)=O)[C@@H]1OC(C)=O | 36.7%
18 | 3600 nM | CC(=O)OC[C@H]1O[C@@H](Oc2ccc(-c3nnc(-c4cccc([N+](=O)[O-])c4)o3)cc2)[C@H](OC(C)=O)[C@@H](OC(C)=O)[C@@H]1OC(C)=O | 40.1%
19 | 950 nM | CC(=O)OC[C@H]1O[C@@H](Oc2ccc(-c3nnc(-c4ccc([N+](=O)[O-])cc4)o3)cc2)[C@H](OC(C)=O)[C@@H](OC(C)=O)[C@@H]1OC(C)=O | 58%
20 | 1080 nM | CC(=O)OC[C@H]1O[C@@H](Oc2ccc(-c3nnc(-c4cccc(C#N)c4)o3)cc2)[C@H](OC(C)=O)[C@@H](OC(C)=O)[C@@H]1OC(C)=O | 44.1%
21 | – | COc1ccc(/C=N/NC(=O)c2ccc(O[C@@H]3O[C@H](CO)[C@@H](O)[C@H](O)[C@H]3O)cc2)cc1 (stereo in doubt) | 11.3%
22 | – | O=C(N/N=C/c1ccc(Cl)cc1)c1ccc(O[C@@H]2O[C@H](CO)[C@@H](O)[C@H](O)[C@H]2O)cc1 (stereo in doubt) | 2.26%
23 | – | O=C(N/N=C/c1ccc(F)cc1)c1ccc(O[C@@H]2O[C@H](CO)[C@@H](O)[C@H](O)[C@H]2O)cc1 (stereo in doubt) | 9.91%
24 | – | Cc1ccc(/C=N/NC(=O)c2ccc(O[C@@H]3O[C@H](CO)[C@@H](O)[C@H](O)[C@H]3O)cc2)cc1 (stereo in doubt) | 9.28%
25 | 5230 nM | CN(CCOc1ccc(CC2SC(=O)NC2=O)cc1)c1ccccn1 (stereo not given) [ROSIGLITAZONE] | 34.2%
